The source of these data is patent publication US11970474B2, “Substituted benzodiazoles and use thereof in therapy” (THOMAS HELLEDAYS STIFTELSE FÖR MEDICINSK FORSKNING, priority 2018, dated 2024).

Assay [1] concerns the target OGG1 (Homo sapiens (Human), UniProt O15527). In words: In vitro OGG1 activity assay. The assay is classed as biochemical. As to conditions: 800 pM OGG1 enzyme, 2 nM human APEX1, 10 nM 8-oxoA:C substrate. The essentials:
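Read-out is fluorescein fluorescence, with compounds in DMSO added first, then enzyme and substrate. OGG1 excises its substrate base from a quenched fluorophore-labelled duplex, and surplus APEX1 cuts the resulting apurinic site. The duplex then melts and fluorescence rises in proportion to glycosylase activity.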

Assay [2] has as its system MLE12 cells. In words: Cell viability assay in MLE12 cells (resazurin). It is filed as cell-based, mouse. As to conditions: Mus musculus, MLE12, 24 h, TNF-α 20 ng/ml, resazurin added after 24 hours culture. The method, boiled down:
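MLE12 cells (7500 cells/well) were seeded onto 11-point duplicate compound dose-responses, with TNF-α (final 20 ng/ml) added after 1 hour at 37° C. After 24 hours, resazurin was added for 6 hours and resorufin fluorescence read (ex544 nm/em595 nm). EC50 values were calculated by curve fitting.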
A general note: Alamar Blue is a resazurin reagent that responds to reducing activity.

Assay [3] concerns CCL2. In words: Mouse CCL2 assay in MLE12 cells. It is filed as cell-based. Conditions: Mus musculus, MLE12, 30 h, MLE12 cells; TNF-α 20 ng/ml; supernatant after 30 hours; HTRF; read-out: CCL2 (EC50). The essentials: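 CCL2 in supernatants was quantified by two-antibody HTRF FRET, read at 620 and 665 nm after overnight RT incubation, with IC50 derived from delta ratios. Cells were SV40-transformed mouse MLE12, treated with duplicate 6-point compound series for 1 h before 30 h TNF-α (20 ng/ml final) stimulation.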

Sequence of OGG1 (O15527 whole entry): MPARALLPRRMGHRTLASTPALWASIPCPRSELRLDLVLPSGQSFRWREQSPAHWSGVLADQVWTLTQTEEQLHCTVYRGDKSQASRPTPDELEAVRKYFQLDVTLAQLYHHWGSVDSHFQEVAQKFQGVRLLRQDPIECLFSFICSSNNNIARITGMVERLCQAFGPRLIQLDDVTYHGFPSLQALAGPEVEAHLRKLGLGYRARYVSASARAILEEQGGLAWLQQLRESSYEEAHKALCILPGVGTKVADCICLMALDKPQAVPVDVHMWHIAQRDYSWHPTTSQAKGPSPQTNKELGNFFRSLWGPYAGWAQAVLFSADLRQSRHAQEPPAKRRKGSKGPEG

Consider `COc1ccc(NC(=O)[C@H]2CC[C@@H](n3c(=O)[nH]c4c(Cl)cccc43)CC2)cc1` [Example 147, (Cis)-4-(4-chloro-2-oxo-2,3-dihydro-1H-1,3-benzodiazol-1-yl)-N-(4-methoxyphenyl)cyclohexane-1-carboxamide], for which the IC50 – broadly, the concentration at which inhibition is half-maximal – in assay [1] was 0.036 µM; in assay [2] it was 17.9 µM. Further, in assay [3], the EC50 (commonly the concentration that produces a half-maximal response) was determined as 32.1 µM.

As for `COc1ccc(NC(=O)[C@H]2CC[C@@H](n3c(=O)[nH]c4c(Br)cccc43)CC2)cc1` [Example 140, (Cis)-4-(4-bromo-2-oxo-2,3-dihydro-1H-1,3-benzodiazol-1-yl)-N-(4-methoxyphenyl)cyclohexane-1-carboxamide], the concentration for half-maximal inhibition (IC50) in assay [1] worked out at 0.025 µM; in assay [2] it was 17.7 µM. Besides, the half-maximal effective concentration (EC50) in assay [3] was found to be 34.6 µM.

As to `COc1cc(NC(=O)[C@H]2CC[C@@H](n3c(=O)[nH]c4c(NC(=O)c5cnco5)cccc43)CC2)ccc1C` [Example 301, N-{2-Oxo-1-[cis-4-[(3-methoxy-4-methylphenyl)carbamoyl]cyclohexyl]-2,3-dihydro-1H-1,3-benzodiazol-4-yl}-1,3-oxazole-5-carboxamide], the IC50 in assay [1] worked out at 0.00691 µM; in assay [2] it was 16.2 µM. Besides, in assay [3], the half-maximal effective concentration (EC50) stood at 43 µM.

In the case of `O=C(Nc1ccc(Br)c(Cl)c1)N1CCC(n2c(=O)[nH]c3c(Br)cccc32)CC1` [Example 49, 4-(4-Bromo-2-oxo-2,3-dihydro-1H-1,3-benzodiazol-1-yl)-N-(4-bromo-3-chlorophenyl)piperidine-1-carboxamide], the values for the IC50 in assay [1] and in assay [2] were 0.379 µM and 5.4 µM, respectively. Moreover, the EC50 in assay [3] was 15.2 µM.

As to `COc1cc(NC(=O)[C@H]2CC[C@@H](n3c(=O)[nH]c4c(NC(=O)CN(C)C)cccc43)CC2)ccc1C` [Example 283, Cis-4-{4-[2-(dimethylamino)acetamido]-2-oxo-2,3-dihydro-1H-1,3-benzodiazol-1-yl}-N-(3-methoxy-4-methylphenyl)cyclohexane-1-carboxamide], the figures for the IC50 in assay [1] and in assay [2] were 0.014 µM and 19.8 µM, respectively. Moreover, the concentration giving a half-maximal response (EC50) in assay [3] was 30.8 µM.

Take `COc1cc(NC(=O)[C@H]2CC[C@@H](n3c(=O)[nH]c4c(N5CCC(N)C5)cccc43)CC2)ccc1C` (stereo partly drawn) [Example 282, Cis-4-[4-(3-aminopyrrolidin-1-yl)-2-oxo-2,3-dihydro-1H-1,3-benzodiazol-1-yl]-N-(3-methoxy-4-methylphenyl)cyclohexane-1-carboxamide]: the results for the IC50 in assay [1] and in assay [2] were 0.0101 µM and 27.5 µM, respectively. In addition, the EC50 in assay [3] amounted to 28.6 µM.
